# Data from PMC7161706 (Acta Pharmaceutica Sinica. B, 2019).
# What was measured:
# [1] = target: T1, GuC4H1 (Glycyrrhiza uralensis, UniProt A0A6B7HXZ5); test: yeast feeding, product by HPLC-Q-TOF-MS; format: cell-based; conditions: 20 μmol/L fed, 30 °C, 12 h; ATR1 reductase in WAT11
# T1 sequence (A0A6B7HXZ5 1-505): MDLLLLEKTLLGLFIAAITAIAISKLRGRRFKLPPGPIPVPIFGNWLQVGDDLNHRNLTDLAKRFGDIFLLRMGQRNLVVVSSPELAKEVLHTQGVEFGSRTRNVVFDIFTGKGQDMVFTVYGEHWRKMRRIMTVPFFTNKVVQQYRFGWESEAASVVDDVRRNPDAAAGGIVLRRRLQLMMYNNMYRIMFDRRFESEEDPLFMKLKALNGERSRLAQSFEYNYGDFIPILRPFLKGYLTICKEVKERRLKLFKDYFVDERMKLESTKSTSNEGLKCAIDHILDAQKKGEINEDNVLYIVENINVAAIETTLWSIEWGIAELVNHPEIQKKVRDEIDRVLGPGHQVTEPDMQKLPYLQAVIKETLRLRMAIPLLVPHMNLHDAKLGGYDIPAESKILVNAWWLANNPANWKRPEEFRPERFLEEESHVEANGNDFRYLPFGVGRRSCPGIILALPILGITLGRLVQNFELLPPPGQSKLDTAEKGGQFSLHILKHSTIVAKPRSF
# [2] = target: GuPAL1 (Glycyrrhiza uralensis, UniProt A0A6B7HYR5); test: product by HPLC-Q-TOF-MS; format: biochemical; conditions: 1 mmol/L substrate, pH 8.0, 30 °C, 10 h
# GuPAL1, sequence (A0A6B7HYR5 1-783 limits assumed): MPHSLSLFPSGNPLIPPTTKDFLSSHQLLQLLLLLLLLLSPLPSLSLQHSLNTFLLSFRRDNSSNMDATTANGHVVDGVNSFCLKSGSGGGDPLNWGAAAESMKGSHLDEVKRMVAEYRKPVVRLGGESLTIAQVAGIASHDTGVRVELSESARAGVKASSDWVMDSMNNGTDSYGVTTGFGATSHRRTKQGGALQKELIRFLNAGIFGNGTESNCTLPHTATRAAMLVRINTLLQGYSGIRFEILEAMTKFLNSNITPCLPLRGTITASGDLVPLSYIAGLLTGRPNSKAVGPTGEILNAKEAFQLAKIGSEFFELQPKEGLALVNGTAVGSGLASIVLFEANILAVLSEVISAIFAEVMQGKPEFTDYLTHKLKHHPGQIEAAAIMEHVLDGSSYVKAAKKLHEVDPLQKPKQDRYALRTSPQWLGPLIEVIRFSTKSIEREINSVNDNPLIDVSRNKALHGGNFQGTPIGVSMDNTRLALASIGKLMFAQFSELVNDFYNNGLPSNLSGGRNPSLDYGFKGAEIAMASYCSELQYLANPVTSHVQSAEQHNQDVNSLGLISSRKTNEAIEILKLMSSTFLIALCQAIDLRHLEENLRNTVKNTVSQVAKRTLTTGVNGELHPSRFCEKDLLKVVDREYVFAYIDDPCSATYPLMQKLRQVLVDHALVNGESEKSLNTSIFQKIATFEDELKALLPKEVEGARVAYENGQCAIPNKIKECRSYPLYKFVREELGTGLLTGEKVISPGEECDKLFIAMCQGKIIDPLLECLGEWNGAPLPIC
compound,measurement,setting,value
"O=C(O)/C=C/c1ccccc1 [CiA, cinnamic acid]","yeast feeding, product by HPLC-Q-TOF-MS (p-coumaric acid)",[1],GuC4H1 was able to produce p-coumaric acid upon feeding cinnamic acid and galactose
"N[C@@H](Cc1ccccc1)C(=O)O [Phe, phenylalanine]",product by HPLC-Q-TOF-MS (cinnamic acid),[2],incubation of the staring substrate phenylalanine with GuPAL1 yielded cinnamic acid
